Source: paper PMC3468400, “Pharmacokinetic profiles of artesunate following multiple intravenous doses of 2, 4, and 8 mg/kg in healthy volunteers: Phase 1b study” (Malaria Journal, 2012)
Read-outs that look alike come from different tables or passages of the source.

Experiments:
[1] = Pharmacokinetics of artesunate (AS) in plasma after multiple intravenous doses, compartmental analysis (Phase 1b); assay type: in vivo, human; details: for Total AUCD1-D3: days 1-3; for half-life / AUC(0-inf) / Cmax / clearance / MRT / AUC: iv; for clearance: read-out: CL_obs; for AUC: 2-8 mg/kg iv, read-out: Mean AUC of AS, range over doses
Method: The study was a double blind, ascending multiple doses, alternating group, safety, tolerance, and PK study. […] When the injection was completed, the study nurse recorded tolerance of injection to include both inspection of site and subjects’ responses. Subjects were provided a light lunch at approximately 4 hours after dosing. Normal activities, excluding strenuous exercise, were permitted four hours after dosing. […] During the multiple-dose period, samples were collected immediately before morning dose on days 2 and 3 for additional trough values. All the samples were stored at −80 °C until shipment and were then shipped to a bio-analytical GLP laboratory, Midwest Research Institute (MRI), in Kansas City, MO, USA. The human use protocol numbers for the Phase 1 trial are: USUHS #G183RW; WRIAR #1128; and HSRRB #A-13276.
The analytes were extracted from human plasma with ethyl acetate. […] The reconstituted extracts were analysed on a Micromass Quattro II Mass Spectrometer in the positive ion electrospray ionization (+ESI) mode. […] This method employed a Varian Pursuit C18 column (150 x 2.0 mm, 5-μm particle size) and a gradient elution with the following mobile phases: A: 10 mM ammonium acetate in water with 1% formic acid and B: 10 mM ammonium acetate in acetonitrile with 1% formic acid, for the chromatographic separation.
Calibration standards and QC samples were analysed to evaluate the performance of the assay.
Compartmental (model-dependent) and non-compartment (model-independent) PK analysis are common methods to determine PK parameters, which are acceptable by FDA [21]. In order to compare only the clinically relevant concentrations, the compartmental PK analysis was selected for PK analysis in this study and based on a short-term (2 min) intravenous infusion in accordance with a previous PK evaluation. […] The input of the drug was assumed to follow zero-order kinetics, and elimination from the central compartment occurred with first-order kinetics. Compartmental analysis of concentration-time data for parent drug was performed using the WinNonlin software with an intravenous infusion program. The first-order method with logarithmic transformation of all drug-concentration data was used throughout.
The drug plasma concentrations at the end of an intravenous (IV) infusion (Cmax) were calculated from the corresponding model equations (IV-infusion model, WinNonlin) at the respective time points. The AUC(0-t) (where t = the time point for the last sample on the PK profile in which quantifiable drug was detected) was estimated using linear or linear/log trapezoidal calculations. […] A drug accumulation index was estimated from the AUC values on day 3 (last multiple dose administration) divided by the AUC on day 1 (first multiple dose administration).

[2] = Tolerability and safety of multiple intravenous AS doses in healthy volunteers; assay type: in vivo, human
Method: The study was a double blind, ascending multiple doses, alternating group, safety, tolerance, and PK study. Injectable AS daily for three days was administered intravenously to three groups of the subjects using alternating doses of 2, 4, and 8 mg. All eight subjects in each dose group received either the AS (six subjects) or placebo (two subjects) in a pre-randomized manner. The study physician, after verifying the code with a study nurse, would then inject either the drug or placebo into an injection port at the pre-measured dose over about 2 min as a short-term intravenous infusion; the study nurse recorded the time of study drug reconstitution, infusion start and completion of injection. When the injection was completed, the study nurse recorded tolerance of injection to include both inspection of site and subjects’ responses. Subjects were provided a light lunch at approximately 4 hours after dosing. Normal activities, excluding strenuous exercise, were permitted four hours after dosing. […] During the multiple-dose period, samples were collected immediately before morning dose on days 2 and 3 for additional trough values. All the samples were stored at −80 °C until shipment and were then shipped to a bio-analytical GLP laboratory, Midwest Research Institute (MRI), in Kansas City, MO, USA. The human use protocol numbers for the Phase 1 trial are: USUHS #G183RW; WRIAR #1128; and HSRRB #A-13276.

[3] = test system: severe falciparum malaria; details: SEAQUAMAT, cited from earlier work
[4] = human, in vivo, cited from earlier work
[5] = test system: parasitaemia; details: cited from earlier work
[6] = human, in vivo, po; cited from earlier work
[7] = human, plasma, 2 mg/kg, Day 1, AS 2 mg/kg iv daily for 3 days, 2 min infusion, mean (CV%), n = 6, CA
[8] = human, plasma, 2 mg/kg, Day 2, AS 2 mg/kg iv daily for 3 days, 2 min infusion, mean (CV%), n = 6, CA
[9] = human, plasma, 2 mg/kg, Day 3, AS 2 mg/kg iv daily for 3 days, 2 min infusion, mean (CV%), n = 6, CA
[10] = human, plasma, 4 mg/kg, Day 1, AS 4 mg/kg iv daily for 3 days, 2 min infusion, mean (CV%), n = 6, CA
[11] = human, plasma, 4 mg/kg, Day 2, AS 4 mg/kg iv daily for 3 days, 2 min infusion, mean (CV%), n = 6, CA
[12] = human, plasma, 4 mg/kg, Day 3, AS 4 mg/kg iv daily for 3 days, 2 min infusion, mean (CV%), n = 6, CA
[13] = human, plasma, 8 mg/kg, Day 1, AS 8 mg/kg iv daily for 3 days, 2 min infusion, mean (CV%), n = 6, CA
[14] = human, plasma, 8 mg/kg, Day 2, AS 8 mg/kg iv daily for 3 days, 2 min infusion, mean (CV%), n = 6, CA
[15] = human, plasma, 8 mg/kg, Day 3, AS 8 mg/kg iv daily for 3 days, 2 min infusion, mean (CV%), n = 6, CA
[16] = 2, 4, 8 mg/kg iv daily for three days

C[C@H]1[C@H](OC(=O)CCC(=O)O)O[C@@H]2O[C@@]3(C)CC[C@H]4[C@H](C)CC[C@@H]1[C@@]24OO3 [AS, 4-(10’dihydro-artemisinin-oxymethyl) succinate]
Tmax ([1]; Day 1, AS 2 mg/kg iv daily for 3 days, 2 min infusion, n = 6, CA): 2 min | Tmax ([1]; Day 1, AS 4 mg/kg iv daily for 3 days, 2 min infusion, n = 6, CA): 2 min | Tmax ([1]; Day 1, AS 8 mg/kg iv daily for 3 days, 2 min infusion, n = 6, CA): 2 min | Tmax ([1]; Day 3, AS 2 mg/kg iv daily for 3 days, 2 min infusion, n = 6, CA): 2 min | Tmax ([1]; Day 3, AS 4 mg/kg iv daily for 3 days, 2 min infusion, n = 6, CA): 2 min | Tmax ([1]; Day 3, AS 8 mg/kg iv daily for 3 days, 2 min infusion, n = 6, CA): 2 min | peak concentrations of AS, range ([1]; all days, 2, 4, 8 mg/kg iv doses): 16,487-74,588 ng/ml | Total AUCD1-D3 ([1]; AS 2 mg/kg iv daily for 3 days, mean (CV%), n = 6): 4731 (40) ng·h/ml | Total AUCD1-D3 ([1]; AS 4 mg/kg iv daily for 3 days, mean (CV%), n = 6): 10787 (17) ng·h/ml | Total AUCD1-D3 ([1]; AS 8 mg/kg iv daily for 3 days, mean (CV%), n = 6): 18606 (45) ng·h/ml | half-life ([1]; human, in vivo, 2 mg/kg, Day 1, AS 2 mg/kg iv daily for 3 days, 2 min infusion, mean (CV%), n = 6, CA, read-out: t1/2 elimination (converted)): 9.6 min | half-life ([1]; human, in vivo, 2 mg/kg, Day 2, AS 2 mg/kg iv daily for 3 days, 2 min infusion, mean (CV%), n = 6, CA, read-out: t1/2 elimination (converted)): 11.4 min | half-life ([1]; human, in vivo, 2 mg/kg, Day 3, AS 2 mg/kg iv daily for 3 days, 2 min infusion, mean (CV%), n = 6, CA, read-out: t1/2 elimination (converted)): 9 min | half-life ([1]; human, in vivo, 4 mg/kg, Day 1, AS 4 mg/kg iv daily for 3 days, 2 min infusion, mean (CV%), n = 6, CA, read-out: t1/2 elimination (converted)): 12.6 min | half-life ([1]; human, in vivo, 4 mg/kg, Day 2, AS 4 mg/kg iv daily for 3 days, 2 min infusion, mean (CV%), n = 6, CA, read-out: t1/2 elimination (converted)): 13.8 min | half-life ([1]; human, in vivo, 4 mg/kg, Day 3, AS 4 mg/kg iv daily for 3 days, 2 min infusion, mean (CV%), n = 6, CA, read-out: t1/2 elimination (converted)): 12 min | half-life ([1]; human, in vivo, 8 mg/kg, Day 1, AS 8 mg/kg iv daily for 3 days, 2 min infusion, mean (CV%), n = 6, CA, read-out: t1/2 elimination (converted)): 12 min | half-life ([1]; human, in vivo, 8 mg/kg, Day 2, AS 8 mg/kg iv daily for 3 days, 2 min infusion, mean (CV%), n = 6, CA, read-out: t1/2 elimination (converted)): 11.4 min | half-life ([1]; human, in vivo, 8 mg/kg, Day 3, AS 8 mg/kg iv daily for 3 days, 2 min infusion, mean (CV%), n = 6, CA, read-out: t1/2 elimination (converted)): 12 min | AUC(0-inf) [1, 7]: 2050 ng·h/mL | Cmax [1, 7]: 28400 ng/mL | clearance [1, 7]: 21.2 mL/min/kg | MRT ([1]; human, plasma, 2 mg/kg, Day 1, AS 2 mg/kg iv daily for 3 days, 2 min infusion, mean (CV%), n = 6, CA, read-out: MRT): 4.8 min | AUC(0-inf) [1, 8]: 1410 ng·h/mL | Cmax [1, 8]: 17900 ng/mL | clearance [1, 8]: 29.5 mL/min/kg | MRT ([1]; human, plasma, 2 mg/kg, Day 2, AS 2 mg/kg iv daily for 3 days, 2 min infusion, mean (CV%), n = 6, CA, read-out: MRT): 4.8 min | AUC(0-inf) [1, 9]: 1270 ng·h/mL | Cmax [1, 9]: 16500 ng/mL | clearance [1, 9]: 27.9 mL/min/kg | MRT ([1]; human, plasma, 2 mg/kg, Day 3, AS 2 mg/kg iv daily for 3 days, 2 min infusion, mean (CV%), n = 6, CA, read-out: MRT): 4.2 min | AUC(0-inf) [1, 10]: 4640 ng·h/mL | Cmax [1, 10]: 40600 ng/mL | clearance [1, 10]: 19.4 mL/min/kg | MRT ([1]; human, plasma, 4 mg/kg, Day 1, AS 4 mg/kg iv daily for 3 days, 2 min infusion, mean (CV%), n = 6, CA, read-out: MRT): 4.8 min | AUC(0-inf) [1, 11]: 2630 ng·h/mL | Cmax [1, 11]: 34400 ng/mL | clearance [1, 11]: 27.3 mL/min/kg | MRT ([1]; human, plasma, 4 mg/kg, Day 2, AS 4 mg/kg iv daily for 3 days, 2 min infusion, mean (CV%), n = 6, CA, read-out: MRT): 4.8 min | AUC(0-inf) [1, 12]: 3520 ng·h/mL | Cmax [1, 12]: 51200 ng/mL | clearance [1, 12]: 23 mL/min/kg | MRT ([1]; human, plasma, 4 mg/kg, Day 3, AS 4 mg/kg iv daily for 3 days, 2 min infusion, mean (CV%), n = 6, CA, read-out: MRT): 4.8 min | AUC(0-inf) [1, 13]: 6020 ng·h/mL | Cmax [1, 13]: 63700 ng/mL | clearance [1, 13]: 27.9 mL/min/kg | MRT ([1]; human, plasma, 8 mg/kg, Day 1, AS 8 mg/kg iv daily for 3 days, 2 min infusion, mean (CV%), n = 6, CA, read-out: MRT): 6 min | AUC(0-inf) [1, 14]: 6670 ng·h/mL | Cmax [1, 14]: 74600 ng/mL | clearance [1, 14]: 26.7 mL/min/kg | MRT ([1]; human, plasma, 8 mg/kg, Day 2, AS 8 mg/kg iv daily for 3 days, 2 min infusion, mean (CV%), n = 6, CA, read-out: MRT): 4.8 min | AUC(0-inf) [1, 15]: 5920 ng·h/mL | Cmax [1, 15]: 67600 ng/mL | clearance [1, 15]: 28.9 mL/min/kg | MRT ([1]; human, plasma, 8 mg/kg, Day 3, AS 8 mg/kg iv daily for 3 days, 2 min infusion, mean (CV%), n = 6, CA, read-out: MRT): 5.4 min | MRT ([1]; human, plasma, 8 mg/kg, range during three days of treatment, 2, 4, 8 mg/kg iv doses, read-out: mean residence time of AS, range): 4.2 to 4.8 min | half-life ([1]; human, plasma, 8 mg/kg, range of means over three days and 2, 4, 8 mg/kg iv doses, read-out: mean elimination half-life of AS, range): 9 to 13.8 min | AUC ([1]; human, plasma, day 1): 2050 to 6020 ng·h/mL | AUC ([1]; human, plasma, day 3): 1270 to 5920 ng·h/mL | Tmax ([1]; human, plasma, Day 2, AS 2 mg/kg iv daily for 3 days, 2 min infusion, n = 6, CA, read-out: Tmax (converted)): 2 min | Tmax ([1]; human, plasma, Day 2, AS 4 mg/kg iv daily for 3 days, 2 min infusion, n = 6, CA, read-out: Tmax (converted)): 2 min | Tmax ([1]; human, plasma, Day 2, AS 8 mg/kg iv daily for 3 days, 2 min infusion, n = 6, CA, read-out: Tmax (converted)): 2 min | dose dependence of adverse events [2, 16]: no dose-dependent increases in any adverse events | haemodynamic or ECG effects [2, 16]: No deleterious haemodynamic or ECG effects were seen | other laboratory abnormalities [2, 16]: no other clinically significant laboratory abnormalities detected | duration of transient sensation of altered or unusual taste ([2]; associated with higher doses of AS, all cases): less than 30 minutes | tolerability ([2]; daily iv for three days, doses up to 8 mg/kg, healthy volunteers): well tolerated and no serious side effects were observed and safe | reticulocyte count ([2]; peaked four days after dosing, returned to normal by study day 7 in most cases, day 10 in all): dose-related decrease | mortality rate ([3]; severe malaria patients, intravenous treatment): 15% | reduction of mortality versus quinine [3]: 35% | mean peak level (Cmax) ([4]; iv): 11,343 ng/ml | Cmax ([4]; po): 1052 ng/mL | mean time for clearance of half the parasitaemia (PC50) ([5]; human, in vivo): 3.18 h | duration of the lag phase of the parasitaemia curve ([5]; intravenous AS, previous clinical trials): 1.92 h | lag time of the parasitaemia curve ([5]; oral AS, previous clinical trials): 2.81 h | Cmax and AUC on the last dose day as compared to the first day [6]: about one-third to one-seventh
